Source: patent publication US20230143604A1, “QW DOSING OF GIP RECEPTOR AGONIST PEPTIDE COMPOUNDS AND USES THEREOF” (TAKEDA PHARMACEUTICAL COMPANY LIMITED, priority 2020, published 2023)
pEC50: −log10 of the molar value. Read-outs that look alike come from different tables or passages of the source.

Experiments:
human GIPR = biological target: T1, human GIPR (Homo sapiens, UniProt P48546); test: Human GIPR agonist activity, intracellular cAMP accumulation; format: cell-based
T1 construct: HEK-293T cells overexpressing full-length human GIPR; FLAG (N); host or cells: HEK-293T
T1 sequence (P48546 22-466): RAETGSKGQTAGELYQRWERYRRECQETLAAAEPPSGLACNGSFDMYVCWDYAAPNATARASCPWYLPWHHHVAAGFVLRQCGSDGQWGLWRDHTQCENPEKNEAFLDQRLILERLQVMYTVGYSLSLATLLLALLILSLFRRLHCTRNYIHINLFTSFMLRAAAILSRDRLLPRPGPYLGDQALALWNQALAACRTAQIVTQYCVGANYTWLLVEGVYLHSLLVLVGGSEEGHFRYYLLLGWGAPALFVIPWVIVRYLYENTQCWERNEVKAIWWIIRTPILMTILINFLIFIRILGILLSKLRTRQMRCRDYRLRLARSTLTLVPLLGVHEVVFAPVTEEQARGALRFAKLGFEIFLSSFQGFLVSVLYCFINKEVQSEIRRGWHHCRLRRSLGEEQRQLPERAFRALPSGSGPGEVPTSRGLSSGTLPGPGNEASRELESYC
Experimental: Cells are cultured per the manufacturer's protocol in DMEM with 10% fetal bovine serum and 1 μg/mL puromycin and stored in frozen aliquots to be used as assay ready cells. On the day of the assay, cells are removed from frozen storage, washed two times in 1× Kreb's Ringer Buffer (Zenbio, Research Triangle Park, N.C.), and re-suspended to a concentration of 4×10^5 cells/mL in 1× Kreb's Ringer Buffer. […] Cells are incubated with test compound for 1 hr at room temperature in the dark, and cAMP accumulation is measured using the Cisbio HiRange cAMP assay kit (Bedford, Mass.) per the manufacturer's protocol. Anti-cAMP antibody and d2-cAMP tracer reagents diluted in lysis/detection buffer are incubated in the dark for 1 hr, and results are measured on an Envision plate reader (Perkin Elmer, Waltham, Mass.). Data is normalized using 1 nM GIP as 100% activity, and DMSO alone as 0% activity.

[1] = Dog plasma protein binding (PPB); format: in vitro ADME; conditions: pH 7.4; fraction unbound; dog serum; read-out: Dog PPB (FUplasma)
Outline: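 Dog serum replaced human serum, with the protocol and analysis otherwise the same as for human plasma protein binding. Values are reported as fraction unbound (Fu,plasma) expressed as a percentage.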

[2] = Solubility in phosphate buffer pH 7.4
Outline: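 3 mg of peptide treated with 100 μL portions of 200 mM phosphate buffer pH 7.4, sonicating/vortexing up to 1 min, with further buffer added until fully dissolved. Solubility then quantified by HPLC.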

human GLP-1R = biological target: T2, human GLP-1R (Homo sapiens, UniProt P43220); test: Human GLP1R agonist activity, intracellular cAMP accumulation; format: cell-based; conditions: HEK-293T cells overexpressing human GLP-1R, 1 hr; for EC50: Human GLP1R cAMP EC50, HEK293T (nM); for pEC50: read-out: Human GLP1R cAMP EC50, HEK293T
T2 construct: HEK-293T cells overexpressing full-length human GLP-1R; FLAG (N); host or cells: HEK-293T
T2 sequence (P43220 24-463): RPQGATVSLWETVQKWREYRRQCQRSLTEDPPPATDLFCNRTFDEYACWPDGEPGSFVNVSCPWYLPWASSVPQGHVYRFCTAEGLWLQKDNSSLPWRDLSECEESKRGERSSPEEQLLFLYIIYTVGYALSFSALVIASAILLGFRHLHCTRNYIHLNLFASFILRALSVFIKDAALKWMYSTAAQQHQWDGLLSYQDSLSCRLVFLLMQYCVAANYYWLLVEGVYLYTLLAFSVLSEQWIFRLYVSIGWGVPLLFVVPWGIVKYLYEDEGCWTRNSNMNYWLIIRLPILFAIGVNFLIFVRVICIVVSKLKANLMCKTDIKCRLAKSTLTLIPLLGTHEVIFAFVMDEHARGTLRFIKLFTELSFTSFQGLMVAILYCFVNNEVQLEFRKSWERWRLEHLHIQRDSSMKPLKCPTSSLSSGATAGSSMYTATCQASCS
Outline: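 Frozen assay-ready cells washed and resuspended at 4×10^5 cells/mL in Krebs Ringer buffer, then incubated with compound 1 hr at room temperature in the dark. cAMP read by HTRF (anti-cAMP antibody, d2-cAMP tracer). Normalised to 1 nm GLP-1 (100%) and DMSO (0%).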

C57BL/6J mice = test: Oral glucose tolerance test (OGTT); format: in vivo; conditions: 3 nmol/kg s.c., 24 hours before glucose loading
Outline: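 Peptide or vehicle given s.c. at 0.1, 0.3, 3 or 10 nmol/kg (peptide-dependent), 24 h before oral 50% dextrose at 5 ml/kg unless stated otherwise. Blood glucose read at 0, 15, 30 and 60 min. % inhibition = (1−(AUC cpd−AUC naïve)/(AUC veh−AUC naïve))×100.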

[3] = Human plasma protein binding (PPB); format: in vitro ADME; conditions: both sexes, pH 7.4; fraction unbound; human plasma, 1000 nmol/L peptide, ultracentrifugation; read-out: Human PPB (FUplasma)
Outline: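 Peptides spiked at 1000 nmol/L into pooled human K2-EDTA plasma adjusted to pH 7.4, incubated 30 min at 37 °C, then ultracentrifuged at ~450,000 g, 4 °C for 3 h. Fu derived from LC-MS/MS (MRM) peak area ratios, supernatant versus plasma.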

[4] = pH 7.4, aqueous buffer, pH 7.4 Phosphate Buffer - Solubility, 200 mM Phosphate buffer pH 7.4
[5] = pH 7.4, solubility in phosphate buffer at pH 7.4, 200 mM phosphate buffer pH 7.4
[6] = HEK-293T cells overexpressing human GIPR, cAMP accumulation, 1 hr, read-out: Human GIPR cAMP EC50, HEK293T

| SMILES | pEC50 (human GIPR) | fraction unbound at 30 min, 1000 nmol/L [1] | solubility [2, 4] | solubility [2, 5] | EC50 (human GLP-1R) | Oral Glucose Tolerance Test Percent decrease in blood glucose AUC (%) over 60 mins (C57BL/6J mice) | fraction unbound at 30 min, 1000 nmol/L [3] | pEC50 (human GIPR; [6]) | solubility ([2]; pH 7.4) | solubility ([2]; pH 7.4, aqueous buffer) | pEC50 (human GLP-1R) |
| --- | --- | --- | --- | --- | --- | --- | --- | --- | --- | --- | --- |
| CC[C@H](C)[C@H](NC(=O)[C@H](CO)NC(=O)[C@H](Cc1ccc(O)cc1)NC(=O)[C@H](CC(=O)O)NC(=O)[C@H](CO)NC(=O)[C@@H](NC(=O)[C@H](Cc1ccccc1)NC(=O)[C@@H](NC(=O)CNC(=O)[C@H](CCC(=O)O)NC(=O)C(C)(C)NC(=O)[C@H](Cc1ccc(O)cc1)NC)[C@@H](C)O)[C@@H](C)CC)C(=O)N[C@@H](C)C(=O)N[C@@H](CCCCNC(=O)CNC(=O)CNC(=O)CNC(=O)CNC(=O)CNC(=O)CCCCCCCCCCCCCCCCC(=O)O)C(=O)N[C@@H](CC(=O)O)C(=O)N[C@@H](CCCNC(=N)N)C(=O)NC(C)(C)C(=O)N[C@@H](C)C(=O)N[C@@H](CCC(N)=O)C(=O)NC(C)(C)C(=O)N[C@@H](CC(N)=O)C(=O)N[C@@H](Cc1ccccc1)C(=O)N[C@H](C(=O)N[C@@H](CC(N)=O)C(=O)N[C@@H](Cc1c[nH]c2ccccc12)C(=O)N[C@@H](CC(C)C)C(=O)N[C@@H](CC(C)C)C(=O)N[C@@H](C)C(=O)N[C@@H](CCC(N)=O)C(=O)N[C@@H](CCCNC(=N)N)C(=O)N1CCC[C@H]1C(=O)N[C@@H](CO)C(=O)N[C@@H](CO)C(=O)NCC(=O)N[C@@H](C)C(=O)N1CCC[C@H]1C(=O)N1CCC[C@H]1C(=O)N1CCC[C@H]1C(=O)N[C@@H](CO)C(=O)O)C(C)C [Compound 44] | 11.77 | 0.0004 | ≥ 30 mg/mL | ≥ 15 mg/mL | 10.7 nM | 119% (3 nmol/kg) | 0.0007 | – | – | – | – |
| CC[C@H](C)[C@H](NC(=O)[C@H](CO)NC(=O)[C@H](Cc1ccc(O)cc1)NC(=O)[C@H](CC(=O)O)NC(=O)[C@H](CO)NC(=O)[C@@H](NC(=O)[C@H](Cc1ccccc1)NC(=O)[C@@H](NC(=O)CNC(=O)[C@H](CCC(=O)O)NC(=O)C(C)(C)NC(=O)[C@H](Cc1ccc(O)cc1)NC)[C@@H](C)O)[C@@H](C)CC)C(=O)N[C@@H](C)C(=O)N[C@@H](CCCCNC(=O)CNC(=O)CNC(=O)CNC(=O)CNC(=O)CNC(=O)CCCCCCCCCCCCCCCCC(=O)O)C(=O)N[C@@H](CC(=O)O)C(=O)N[C@@H](CCCNC(=N)N)C(=O)NC(C)(C)C(=O)N[C@@H](C)C(=O)N[C@@H](CCC(N)=O)C(=O)NC(C)(C)C(=O)N[C@@H](CC(=O)O)C(=O)N[C@@H](Cc1ccccc1)C(=O)N[C@H](C(=O)N[C@@H](CC(N)=O)C(=O)N[C@@H](Cc1c[nH]c2ccccc12)C(=O)N[C@@H](CC(C)C)C(=O)N[C@@H](CC(C)C)C(=O)N[C@@H](C)C(=O)N[C@@H](CCC(N)=O)C(=O)N[C@@H](CCCNC(=N)N)C(=O)N1CCC[C@H]1C(=O)N[C@@H](CO)C(=O)N[C@@H](CO)C(=O)NCC(=O)N[C@@H](C)C(=O)N1CCC[C@H]1C(=O)N1CCC[C@H]1C(=O)N1CCC[C@H]1C(=O)N[C@@H](CO)C(=O)O)C(C)C [Compound 43] | 12.00 | – | ≥ 30 mg/mL | ≥ 15 mg/mL | 61.7 nM | 97% (3 nmol/kg) | – | – | – | – | – |
| CC[C@H](C)[C@H](NC(=O)[C@H](CO)NC(=O)[C@H](Cc1ccc(O)cc1)NC(=O)[C@H](CC(=O)O)NC(=O)[C@H](CO)NC(=O)[C@@H](NC(=O)[C@H](Cc1ccccc1)NC(=O)[C@@H](NC(=O)CNC(=O)[C@H](CCC(=O)O)NC(=O)C(C)(C)NC(=O)[C@H](Cc1ccc(O)cc1)NC)[C@@H](C)O)[C@@H](C)CC)C(=O)N[C@@H](C)C(=O)N[C@@H](CCCCNC(=O)CNC(=O)CNC(=O)CNC(=O)CNC(=O)CNC(=O)CCCCCCCCCCCCCCCCC(=O)O)C(=O)N[C@@H](CC(=O)O)C(=O)N[C@@H](CCCNC(=N)N)C(=O)NC(C)(C)C(=O)N[C@@H](C)C(=O)N[C@@H](CCC(N)=O)C(=O)NC(C)(C)C(=O)N[C@@H](CC(=O)O)C(=O)N[C@@H](Cc1ccccc1)C(=O)N[C@H](C(=O)N[C@@H](CC(N)=O)C(=O)N[C@@H](Cc1c[nH]c2ccccc12)C(=O)N[C@@H](CC(C)C)C(=O)N[C@@H](CC(C)C)C(=O)N[C@@H](C)C(=O)N[C@@H](CCC(N)=O)C(=O)N[C@@H](CO)C(=O)N1CCC[C@H]1C(=O)N[C@@H](CO)C(=O)N[C@@H](CO)C(=O)NCC(=O)O)C(C)C [Compound 116] | – | – | – | – | – | – | – | 12.00 | ≥ 15 mg/mL | ≥ 30 mg/mL | 6.96 |
| CC[C@H](C)[C@H](NC(=O)[C@H](Cc1ccccc1)NC(=O)[C@@H](NC(=O)CNC(=O)[C@H](CCC(=O)O)NC(=O)C(C)(C)NC(=O)[C@H](Cc1ccc(O)cc1)NC)[C@@H](C)O)C(=O)N[C@@H](CO)C(=O)N[C@@H](CC(=O)O)C(=O)N[C@@H](Cc1ccc(O)cc1)C(=O)N[C@@H](CO)C(=O)N[C@H](C(=O)NC(C)(C)C(=O)N[C@@H](CCCCNC(=O)CNC(=O)CNC(=O)CNC(=O)CNC(=O)CNC(=O)CCCCCCCCCCCCCCCCCCC(=O)O)C(=O)N[C@@H](CC(=O)O)C(=O)N[C@@H](CCCNC(=N)N)C(=O)NC(C)(C)C(=O)N[C@@H](C)C(=O)N[C@@H](CCC(N)=O)C(=O)NC(C)(C)C(=O)N[C@@H](CC(=O)O)C(=O)N[C@@H](Cc1ccccc1)C(=O)N[C@H](C(=O)N[C@@H](CC(N)=O)C(=O)N[C@@H](Cc1c[nH]c2ccccc12)C(=O)N[C@@H](CC(C)C)C(=O)N[C@@H](CC(C)C)C(=O)N[C@@H](C)C(=O)N[C@@H](CCC(N)=O)C(=O)N[C@@H](CCCNC(=N)N)C(=O)NCC(=O)O)C(C)C)[C@@H](C)CC [Compound 67] | – | – | – | – | – | – | – | 11.89 | ≥ 15 mg/mL | ≥ 30 mg/mL | 7.47 |
| CC[C@H](C)[C@H](NC(=O)[C@H](Cc1ccccc1)NC(=O)[C@@H](NC(=O)CNC(=O)[C@H](CCC(=O)O)NC(=O)C(C)(C)NC(=O)[C@@H](N)Cc1ccc(O)cc1)[C@@H](C)O)C(=O)N[C@@H](CO)C(=O)N[C@@H](CC(=O)O)C(=O)N[C@@H](Cc1ccc(O)cc1)C(=O)N[C@@H](CO)C(=O)N[C@H](C(=O)NC(C)(C)C(=O)N[C@@H](CCCCNC(=O)CNC(=O)CNC(=O)CNC(=O)CNC(=O)CNC(=O)CCCCCCCCCCCCCCCCC(=O)O)C(=O)N[C@@H](CC(=O)O)C(=O)N[C@@H](CCCNC(=N)N)C(=O)NC(C)(C)C(=O)N[C@@H](C)C(=O)N[C@@H](CCC(N)=O)C(=O)NC(C)(C)C(=O)N[C@@H](CC(=O)O)C(=O)N[C@@H](Cc1ccccc1)C(=O)N[C@H](C(=O)N[C@@H](CC(N)=O)C(=O)N[C@@H](Cc1c[nH]c2ccccc12)C(=O)N[C@@H](CC(C)C)C(=O)N[C@@H](CC(C)C)C(=O)N[C@@H](C)C(=O)N[C@@H](CCC(N)=O)C(=O)N[C@@H](CCCNC(=N)N)C(=O)NCC(=O)O)C(C)C)[C@@H](C)CC [Compound 137] | – | – | – | – | – | 23% (3 nmol/kg) | – | 11.89 | ≥ 15 mg/mL | ≥ 30 mg/mL | 8.46 |
